The source made the active and inactive calls.
How the values were obtained:
[1] = molecular target: T1, Methionyl-tRNA synthetase, putative (Trypanosoma brucei brucei, UniProt Q38C91); type: functional, Trypanosoma brucei brucei strain 927/4 GUTat10.1
[2] = molecular target: T1, Methionyl-tRNA synthetase, putative; type: functional, Trypanosoma brucei brucei strain 927/4 GUTat10.1; remark: listed apart in the source
[3] = Counterscreen for inhibitors of Trypanosoma brucei methionyl tRNA synthetase (MetRS): Luminescence-based cell-based high throughput dose response assay to identify compounds that are cytotoxic to Jurkat human T lymphocyte cells.; type: functional
[4] = tested on: Cryptococcus neoformans; test: PubChem AID 686997; type: functional, organism-based
[5] = CEM21 lymphoblast cell cytotoxicity, dose response, cytotoxicity control for viral fusion inhibitor project, CellTiter-Glo luminescence, cherry-picked (AID 652042); type: functional, cell-based;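 also: potency for signal decrease meaning cytotoxicity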
[6] = inhibitors of clade B AD8 Env fusion, dose response, cell-based, cherry-pick (AID 652062); type: functional;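 also: luciferase signal from cell-cell fusion driven by HIV-1 clade B AD8 Env; potency is for inhibitors of fusion seen as a drop in luminescence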
[7] = inhibitors of HIV Env-driven cell fusion, dose response, cherry-pick (AID 652057); type: functional, cell-based
[8] = tested on: Vero; test: Vero cell toxicity, dose response, cytotoxicity control, plate reader, cherry-pick samples (AID 687020); type: functional, cell-based; conditions: Chlorocebus sabaeus
[9] = Luminescence Cell-Based Dose Response HTS to Identify Inhibitors of 5'UTR Stem-Loop Driven Prion Protein mRNA Translation in H4 Neuroglioblastoma Cells. [Related pubchem assays: 1827 (Project Summary), 1813 (Primary HTS)]; type: functional
[10] = AlphaScreen signal interference compounds, dose response, artefact control for ARNT-TACC3 interaction inhibitor project, biochemical, luminescence, cherry-pick (AID 651705); type: functional;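 also: AlphaScreen bead proximity signal that flags compounds interfering with the detection technology; potency reflects signal decrease which marks the compound as an assay artifact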
[11] = inhibitors of SNCA 5'UTR-driven reporter translation, confirmation, H4 neuroglioma cells, luminescence (AID 1988); type: functional, cell-based
[12] = inhibitors of firefly luciferase expression or activity, dose response, H4 neuroglioma cells, luminescence (AID 1990); type: functional, cell-based
[13] = molecular target: 5-hydroxytryptamine receptor 2A (Mus musculus, UniProt P35363); type: functional, cell-based;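 also: CHO-K1 cells with tagged receptor and beta-arrestin; agonist potency measured as compound-induced activation of the receptor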
Sequence of 5-hydroxytryptamine receptor 2A (P35363 whole entry): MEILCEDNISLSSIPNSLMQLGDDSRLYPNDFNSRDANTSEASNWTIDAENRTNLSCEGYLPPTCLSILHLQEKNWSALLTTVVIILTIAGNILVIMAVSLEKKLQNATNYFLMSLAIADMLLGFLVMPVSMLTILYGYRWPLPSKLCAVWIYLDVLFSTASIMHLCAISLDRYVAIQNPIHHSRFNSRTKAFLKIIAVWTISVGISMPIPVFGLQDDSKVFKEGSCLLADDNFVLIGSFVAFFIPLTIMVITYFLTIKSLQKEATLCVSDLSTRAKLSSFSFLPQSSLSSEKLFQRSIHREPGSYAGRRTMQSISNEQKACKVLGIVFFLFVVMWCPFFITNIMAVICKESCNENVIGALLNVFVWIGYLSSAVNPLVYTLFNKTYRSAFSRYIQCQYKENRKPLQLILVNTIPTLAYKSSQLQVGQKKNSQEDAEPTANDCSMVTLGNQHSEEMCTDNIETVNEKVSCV

[14] = molecular target: T2, Coagulation factor XII (Homo sapiens, UniProt P00748); type: functional;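 also: activated factor XIIa alpha cleaving a fluorogenic AMC peptide substrate; inhibitor potency from loss of enzyme activity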
T2 sequence (P00748 whole entry): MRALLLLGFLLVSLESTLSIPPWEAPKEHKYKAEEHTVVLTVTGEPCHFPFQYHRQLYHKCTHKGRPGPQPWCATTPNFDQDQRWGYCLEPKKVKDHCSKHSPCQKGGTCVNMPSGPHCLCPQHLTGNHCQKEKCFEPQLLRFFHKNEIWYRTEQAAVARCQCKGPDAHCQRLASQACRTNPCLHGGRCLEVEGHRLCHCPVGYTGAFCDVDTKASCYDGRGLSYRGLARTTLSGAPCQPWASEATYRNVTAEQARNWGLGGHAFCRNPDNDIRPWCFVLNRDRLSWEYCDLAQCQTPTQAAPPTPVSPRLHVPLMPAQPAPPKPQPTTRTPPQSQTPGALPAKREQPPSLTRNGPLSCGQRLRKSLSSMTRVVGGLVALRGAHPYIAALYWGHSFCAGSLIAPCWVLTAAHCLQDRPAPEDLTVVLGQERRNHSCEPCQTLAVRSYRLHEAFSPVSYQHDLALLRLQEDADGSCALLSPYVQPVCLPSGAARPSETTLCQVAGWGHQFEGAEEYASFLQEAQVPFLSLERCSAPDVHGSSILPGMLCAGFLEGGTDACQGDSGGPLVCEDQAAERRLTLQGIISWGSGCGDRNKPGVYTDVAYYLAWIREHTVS

[15] = molecular target: Mu-type opioid receptor (Homo sapiens, UniProt P35372); type: functional, cell-based;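 also: U2OS cells with beta-arrestin recruitment to OPRM1 by beta-gal complementation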
Sequence of Mu-type opioid receptor (P35372 whole entry): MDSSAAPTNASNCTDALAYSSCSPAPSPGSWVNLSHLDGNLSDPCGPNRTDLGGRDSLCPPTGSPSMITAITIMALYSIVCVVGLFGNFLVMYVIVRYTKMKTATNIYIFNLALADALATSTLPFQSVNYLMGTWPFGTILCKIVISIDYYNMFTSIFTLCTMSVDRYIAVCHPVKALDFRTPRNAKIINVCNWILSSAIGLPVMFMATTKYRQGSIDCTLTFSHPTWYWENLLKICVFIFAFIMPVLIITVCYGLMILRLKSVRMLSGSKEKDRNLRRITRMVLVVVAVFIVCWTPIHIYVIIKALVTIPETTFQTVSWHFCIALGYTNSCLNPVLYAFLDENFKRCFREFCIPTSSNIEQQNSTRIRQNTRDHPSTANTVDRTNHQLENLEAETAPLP

[16] = cells; type: functional, cell-based; conditions: HEK-CNG
[17] = molecular target: Galanin receptor type 3 (Homo sapiens, UniProt O60755); test: Fluorescence-based cell-based primary high throughput dose response assay to identify antagonists of the Galanin Receptor 3 (GalR3).; type: functional
Sequence of Galanin receptor type 3 (O60755 whole entry): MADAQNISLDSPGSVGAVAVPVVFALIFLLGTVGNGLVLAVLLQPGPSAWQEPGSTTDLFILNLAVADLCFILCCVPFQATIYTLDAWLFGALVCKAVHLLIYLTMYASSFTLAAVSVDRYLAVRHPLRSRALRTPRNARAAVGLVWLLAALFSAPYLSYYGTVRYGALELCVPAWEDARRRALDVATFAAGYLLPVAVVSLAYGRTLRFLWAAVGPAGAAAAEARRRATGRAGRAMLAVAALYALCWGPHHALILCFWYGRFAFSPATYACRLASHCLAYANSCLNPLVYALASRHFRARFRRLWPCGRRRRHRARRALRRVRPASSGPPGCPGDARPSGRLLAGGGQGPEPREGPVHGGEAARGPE

[18] = molecular target: T3, Estrogen receptor (Homo sapiens, UniProt P03372);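 also: potency for inhibiting coactivator peptide recruitment to the receptor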
T3 sequence (P03372 whole entry): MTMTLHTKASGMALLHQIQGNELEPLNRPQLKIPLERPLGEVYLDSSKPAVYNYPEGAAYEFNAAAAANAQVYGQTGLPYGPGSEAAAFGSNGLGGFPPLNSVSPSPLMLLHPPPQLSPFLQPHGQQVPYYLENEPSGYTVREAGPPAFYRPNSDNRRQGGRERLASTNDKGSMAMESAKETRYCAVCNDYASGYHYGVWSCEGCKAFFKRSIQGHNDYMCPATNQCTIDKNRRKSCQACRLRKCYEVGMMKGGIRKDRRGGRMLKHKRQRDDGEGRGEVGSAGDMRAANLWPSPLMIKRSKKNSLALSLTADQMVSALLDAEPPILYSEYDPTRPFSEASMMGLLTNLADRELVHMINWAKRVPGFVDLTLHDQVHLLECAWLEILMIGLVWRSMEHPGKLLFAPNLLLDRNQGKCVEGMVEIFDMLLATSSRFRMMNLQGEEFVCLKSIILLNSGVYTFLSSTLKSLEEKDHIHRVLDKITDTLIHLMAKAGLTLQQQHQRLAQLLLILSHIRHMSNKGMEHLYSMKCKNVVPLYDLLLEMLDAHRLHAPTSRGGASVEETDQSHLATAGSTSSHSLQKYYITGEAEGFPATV

[19] = molecular target: T4, Estrogen receptor beta (Homo sapiens, UniProt Q92731); test: ERβ–SRC-3 coactivator interaction inhibitors, confirmation, orthogonal assay, biochemical, ELISA, streptavidin-HRP readout (AID 1060)
T4 sequence (Q92731 whole entry): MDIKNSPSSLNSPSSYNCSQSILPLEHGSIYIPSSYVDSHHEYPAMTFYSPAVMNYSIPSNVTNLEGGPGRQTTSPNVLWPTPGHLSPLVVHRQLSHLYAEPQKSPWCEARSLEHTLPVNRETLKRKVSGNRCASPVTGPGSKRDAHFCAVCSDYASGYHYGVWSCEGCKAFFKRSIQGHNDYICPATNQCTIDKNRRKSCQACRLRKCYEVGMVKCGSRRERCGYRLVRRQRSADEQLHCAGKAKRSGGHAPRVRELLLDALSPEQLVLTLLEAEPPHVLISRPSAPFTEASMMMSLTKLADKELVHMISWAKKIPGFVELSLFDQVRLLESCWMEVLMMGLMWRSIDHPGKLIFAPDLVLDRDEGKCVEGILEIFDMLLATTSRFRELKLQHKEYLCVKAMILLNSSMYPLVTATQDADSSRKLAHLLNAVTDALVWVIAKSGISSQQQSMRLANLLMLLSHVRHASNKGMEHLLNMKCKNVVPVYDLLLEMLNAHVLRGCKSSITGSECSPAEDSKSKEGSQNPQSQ

[20] = molecular target: T4, Estrogen receptor beta
[21] = molecular target: T5, Histone-lysine N-methyltransferase NSD2 (Homo sapiens, UniProt O96028); type: biochemical
T5 sequence (O96028 whole entry): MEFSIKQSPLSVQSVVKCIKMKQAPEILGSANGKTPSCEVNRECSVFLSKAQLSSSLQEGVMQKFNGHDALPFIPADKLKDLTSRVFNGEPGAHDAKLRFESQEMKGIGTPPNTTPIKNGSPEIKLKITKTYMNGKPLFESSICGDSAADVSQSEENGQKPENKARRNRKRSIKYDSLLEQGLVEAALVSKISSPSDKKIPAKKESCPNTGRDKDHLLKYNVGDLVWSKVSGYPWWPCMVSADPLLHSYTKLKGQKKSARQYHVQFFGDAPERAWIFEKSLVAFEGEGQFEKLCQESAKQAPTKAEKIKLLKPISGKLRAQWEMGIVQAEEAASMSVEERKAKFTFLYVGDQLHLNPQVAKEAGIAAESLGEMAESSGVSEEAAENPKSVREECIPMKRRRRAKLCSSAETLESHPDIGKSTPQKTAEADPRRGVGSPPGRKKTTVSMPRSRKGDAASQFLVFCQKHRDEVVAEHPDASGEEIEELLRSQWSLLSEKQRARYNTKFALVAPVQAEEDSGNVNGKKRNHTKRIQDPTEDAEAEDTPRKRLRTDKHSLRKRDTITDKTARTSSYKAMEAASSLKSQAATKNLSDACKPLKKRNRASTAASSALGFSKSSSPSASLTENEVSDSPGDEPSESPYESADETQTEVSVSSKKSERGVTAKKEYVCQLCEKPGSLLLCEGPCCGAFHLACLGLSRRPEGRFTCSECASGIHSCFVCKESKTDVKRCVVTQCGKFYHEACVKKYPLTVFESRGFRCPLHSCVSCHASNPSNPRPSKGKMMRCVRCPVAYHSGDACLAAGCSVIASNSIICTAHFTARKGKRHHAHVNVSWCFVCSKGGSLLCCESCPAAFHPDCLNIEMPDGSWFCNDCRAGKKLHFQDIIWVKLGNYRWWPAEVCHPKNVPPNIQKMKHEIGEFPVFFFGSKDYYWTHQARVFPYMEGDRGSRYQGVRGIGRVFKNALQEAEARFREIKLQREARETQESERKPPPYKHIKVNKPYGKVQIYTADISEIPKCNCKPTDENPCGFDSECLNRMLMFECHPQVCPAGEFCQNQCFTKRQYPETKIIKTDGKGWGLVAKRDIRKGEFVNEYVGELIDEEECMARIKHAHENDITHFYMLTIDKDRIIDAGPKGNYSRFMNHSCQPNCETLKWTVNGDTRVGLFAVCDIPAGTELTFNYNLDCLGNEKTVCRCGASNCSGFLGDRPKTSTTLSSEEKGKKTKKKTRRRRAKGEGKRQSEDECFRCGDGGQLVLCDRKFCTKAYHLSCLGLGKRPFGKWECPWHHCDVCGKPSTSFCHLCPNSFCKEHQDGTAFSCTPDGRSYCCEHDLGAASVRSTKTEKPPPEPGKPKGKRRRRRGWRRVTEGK

[22] = molecular target: Low molecular weight phosphotyrosine protein phosphatase (Homo sapiens, UniProt P24666); type: functional; conditions: read-out: IC50_Mean;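 also: Dose-response confirmation assay measuring inhibition of LMPTP enzyme activity by fluorescence intensity read-out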
Sequence of Low molecular weight phosphotyrosine protein phosphatase (P24666 whole entry): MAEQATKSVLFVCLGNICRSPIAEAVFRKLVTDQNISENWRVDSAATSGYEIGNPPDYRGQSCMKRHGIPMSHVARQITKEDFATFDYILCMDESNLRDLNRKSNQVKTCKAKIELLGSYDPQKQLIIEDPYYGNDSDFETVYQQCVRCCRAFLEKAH

T1 sequence (Q38C91 whole entry): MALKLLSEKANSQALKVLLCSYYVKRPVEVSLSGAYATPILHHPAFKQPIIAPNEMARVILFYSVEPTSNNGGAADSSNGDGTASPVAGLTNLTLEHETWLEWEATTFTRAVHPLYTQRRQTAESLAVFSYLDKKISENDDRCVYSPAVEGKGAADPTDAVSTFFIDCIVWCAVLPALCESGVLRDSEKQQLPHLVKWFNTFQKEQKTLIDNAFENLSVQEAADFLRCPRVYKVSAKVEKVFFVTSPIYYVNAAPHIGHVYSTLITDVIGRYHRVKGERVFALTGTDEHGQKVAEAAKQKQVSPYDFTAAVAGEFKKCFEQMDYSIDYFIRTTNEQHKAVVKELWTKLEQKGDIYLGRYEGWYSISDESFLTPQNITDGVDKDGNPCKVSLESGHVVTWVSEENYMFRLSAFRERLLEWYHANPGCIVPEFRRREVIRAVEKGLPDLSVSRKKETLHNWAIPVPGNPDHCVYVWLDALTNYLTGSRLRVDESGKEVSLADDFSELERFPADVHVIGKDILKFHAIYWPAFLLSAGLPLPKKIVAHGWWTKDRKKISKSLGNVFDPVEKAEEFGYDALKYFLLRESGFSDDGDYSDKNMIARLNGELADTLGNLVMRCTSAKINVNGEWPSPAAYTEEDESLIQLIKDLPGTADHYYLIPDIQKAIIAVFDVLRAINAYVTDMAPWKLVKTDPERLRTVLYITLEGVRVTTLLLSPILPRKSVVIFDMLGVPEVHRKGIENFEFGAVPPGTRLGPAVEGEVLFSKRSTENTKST

Cc1ccccc1-c1c[nH]c(C(O)c2cc(Cl)cc(Cl)c2)n1 (configuration not stated)
IC50 [1]: 5.56 µM (active)
IC50 [2]: 8.47 µM (active)
IC50 [3]: 83.3 µM (inactive)

COC(=O)C1=C(C)N(Cc2ccc(Br)cc2)C(=S)NC1c1cccc(Cl)c1 (configuration not stated)
AC50 [4]: 26.4 µM (active)

C[C@H](CO)N1C[C@H](C)[C@H](CN(C)S(=O)(=O)c2ccccc2)Oc2cc(Br)ccc2S1(=O)=O
AC50 [5]: 53.4 µM (active)
AC50 [6]: 38.6 µM (active)
AC50 [7]: 4.68 µM (active)

COc1ccccc1-c1noc2c1C(=O)N(Cc1cn(Cc3ccccc3)nn1)CC2
AC50 [8]: 32.2 µM (active)

C(=N\Nc1ccc2nncn2n1)/c1ccccn1
EC50 [9]: 11.8 µM (active)
AC50 [10]: 110 µM (active)
EC50 [11]: > 120 µM (not active)
EC50 [12]: > 120 µM (not active)

Cc1[nH]c2ccccc2c1NC(=O)CN1CCN(C(=O)c2ccco2)CC1
EC50 [13]: 4.1 µM (active)
IC50 [14]: > 50 µM (inactive)
EC50 [15]: 92.4 µM (inactive)

Cc1cc(OCC(=O)Nc2ccncc2)c(C)cc1Br
EC50 [16]: > 29.9 µM (inactive)
IC50 [17]: 1.4 µM (active)

CCN(c1ccccc1)S(=O)(=O)c1cc(C(=O)O)ccc1C
IC50 [18]: 13.1 µM (active)
IC50 [19]: 1.83 µM (not active)
IC50 [20]: 6.12 µM (active)
AC50 [21]: 9.26 µM (active)
IC50 [22]: 21 µM (inactive)

Source: ChEMBL document CHEMBL1201862, “PubChem BioAssay data set” (2004)
